Data published in PMC8307317, “Point-Substitution of Phenylalanine Residues of 26RFa Neuropeptide: A Structure-Activity Relationship Study” (Molecules, 2021).
Read-outs that look alike come from different tables or passages of the source. Non-standard residues stand in square brackets, D forms with d. Residues, ends and D or L forms follow the SMILES beside them. No end group written: not given here. *: point of attachment. Phe(4-tBu) = CC(C)(C)c1ccc(C[C@H](N)C(=O)O)cc1; X4 = COc1ccc(C(C(=O)*)N2CCNCC2)cc1OC; X5 = COc1ccc(C(C(=O)*)N2CCNCC2)cc1; X1 = O=C(C(c1cccnc1)N1CCNCC1)*

Columns and labels:
[1] = target: T1, human QRFPR (hQRFPR) (Homo sapiens, UniProt Q96P65); experiment: Calcium mobilization assay, agonist mode ([Ca2+]i in Gα16-hQRFPR-transfected CHO cells); type: cell-based
T1 construct: expressed in transfected cells; host or cells: CHO cells, stably transfected with hQRFPR (G418 selection) and Gα16 (hygromycin B selection)
T1 sequence (Q96P65 1-431): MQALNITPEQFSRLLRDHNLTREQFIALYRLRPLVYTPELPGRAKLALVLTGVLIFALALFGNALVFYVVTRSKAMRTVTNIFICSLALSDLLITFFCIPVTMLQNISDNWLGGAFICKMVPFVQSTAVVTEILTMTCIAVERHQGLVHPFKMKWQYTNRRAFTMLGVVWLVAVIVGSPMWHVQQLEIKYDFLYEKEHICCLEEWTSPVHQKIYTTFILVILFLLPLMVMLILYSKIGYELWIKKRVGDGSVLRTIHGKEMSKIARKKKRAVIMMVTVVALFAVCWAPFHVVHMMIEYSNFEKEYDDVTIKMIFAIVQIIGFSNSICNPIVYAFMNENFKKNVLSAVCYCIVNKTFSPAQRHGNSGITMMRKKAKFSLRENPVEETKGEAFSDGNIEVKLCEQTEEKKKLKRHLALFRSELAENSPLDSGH
Procedure: (§1) Stably transfected hQRFPR CHO cells were obtained as previously described. The cells were maintained in F-12 nutrient mixture (Ham-F12) medium supplemented with 10% fetal bovine serum, 2 mM glutamine, and penicillin-streptomycin. Expression of Gα16 cells was maintained using selection antibiotic hygromycin B (200 µg/mL) and that of hQRFPR using geneticin G418 (500 µg/mL) (Life Technologies, Villebon-Sur-Yvette, France) in a humidified 5% CO2 atmosphere at 37 °C.
(§2) Changes in intracellular Ca^2+ concentrations induced by 26RFa(20–26) analogs in CHO-Gα16-hQRFPR-transfected cells were measured on a benchtop scanning fluorometer Flexstation III (Molecular Devices, Sunnyvale, CA, USA) as previously described. Briefly, 96-well assay black plates with clear bottoms (Corning international, Avon, France) were seeded at a density of 40,000 cells/well 24 h prior to assay. For profiling agonistic experiments, cells were loaded with 2 µM Fluo-4 acetoxymethyl ester (AM) (Invitrogen) for 1 h in the presence of 0.01% pluronic acid, washed thrice, and incubated for 30 min with standard HBSS containing 2.5 mM probenecid and 5 mM HEPES. Compounds to be tested were added at final concentrations ranging from 10^−11 to 10^−5 M in HBSS, and the fluorescence intensity was measured during 3 min. To evaluate the antagonistic potency of the test compounds, cells were incubated with each compound over 15 min after Fluo-4 AM loading. Then, during fluorescence recording, a pulse of 26RFa was administered at a final concentration of 10^−7 M. After subtraction of the mean fluorescence background, the baseline was normalized to 100%. Fluorescence peak values were determined for each concentration of compound.
(§3) Calcium experiments were performed in triplicate, and data, expressed as mean ± SEM of at least three distinct experiments, were analyzed with the Prism 8.0 software (Graphpad Software, San Diego, CA, USA). EC50 and the IC50 values were determined from concentration–response curves using a sigmoidal dose–response fit with variable slope from at least three independent determinations. Differences between 26RFa(20–26) and analog activities were analyzed by the Mann–Whitney test. p values < 0.05 were considered significant.

[2] = target: T1, human QRFPR (hQRFPR); experiment: Calcium mobilization assay, antagonist mode (26RFa-evoked [Ca2+]i increase in Gα16-hQRFPR-transfected CHO cells); type: cell-based; settings: for inhibition at 10 µM: CHO, read-out: Imax (inhibition of 26RFa-evoked response); for inhibition at 10 µM / Imax (inhibition of 26RFa-evoked response): Inhibition at a maximal concentration of 10^−5 M, 10^−7 M 26RFa
Procedure: as §1, §2, §3

[3] = target: T1, human QRFPR (hQRFPR); design: method as in PMID 22800498; settings: cited from earlier work
[4] = [Ca2+]i mobilization in Gα16-hQRFPR-transfected CHO cells, mean of at least three independent experiments performed in triplicate, read-out: EC50
[5] = single prototype curve, triplicate, 10^−7 M 26RFa-evoked response, read-out: IC50 calculated from representative dose–inhibition curves (Figure 4)

Compound	EC50 [1, 4] [µM]	further results
CC(C)(C)c1ccc(C[C@H](NC(=O)CNC(=O)CN)C(=O)N[C@@H](CO)C(=O)N[C@@H](Cc2ccccc2)C(=O)N[C@@H](CCCNC(=N)N)C(=O)N[C@@H](Cc2ccccc2)C(N)=O)cc1 [Compound 11, [ptBuPhe^22]26RFa(20–26)] (H-GG[Phe(4-tBu)]SFRF-NH2)	> 10	inhibition at 10 µM [2]: 45 to 46%; Imax (inhibition of 26RFa-evoked response) [2]: 45%; IC50 ([2]; inhibition of 10^−7 M 26RFa-evoked [Ca2+]i response, compounds inactive as agonists, ND = not detectable, read-out: IC50): 6.22 µM; IC50 [2, 5]: 4.49 µM
N=C(N)NCCC[C@H](NC(=O)[C@H](Cc1ccccc1)NC(=O)[C@H](CO)NC(=O)[C@H](Cc1ccccc1)NC(=O)CNC(=O)CN)C(=O)N[C@H](Cc1c[nH]c2ccccc12)C(N)=O [Compound 39, [DTrp^26]26RFa(20–26)] (H-GGFSFR[dW]-NH2)	–	inhibition at 10 µM [2]: 45 to 46%; Imax (inhibition of 26RFa-evoked response) [2]: 46%; IC50 [2, 5]: 5.84 µM
COc1ccc(C(C(=O)N[C@@H](CO)C(=O)N[C@@H](Cc2ccccc2)C(=O)N[C@@H](CCCNC(=N)N)C(=O)N[C@@H](Cc2ccccc2)C(N)=O)N2CCNCC2)cc1 (stereo partly shown) [Compound 59, [Cmpi(4-MeOPhg)^22]26RFa(22–26)] (X5-SFRF-NH2)	> 10	–
GGFSFRF-NH2 [Compound 1, 26RFa(20–26)]	–	EC50 ([1]; single prototype curve, triplicate, basal [Ca2+]i mobilization, read-out: EC50 calculated from representative dose–response curves (Figure 3)): 1.07 µM
GGFSFRW-NH2 [Compound 10, [Trp^26]26RFa(20–26)]	5.06	–
GGFSWRF-NH2 [Compound 9, [Trp^24]26RFa(20–26)]	2.04	–
GGWSFRF-NH2 [Compound 8, [Trp^22]26RFa(20–26)]	1.98	–
[Cmpi^21]26RFa(21–26) [LV-2043]	–	fold more potent than the reference heptapeptide 26RFa(20–26) [3]: 5 fold

Continued, in another order:

EC50 [1, 4] [µM]	Compound	further results
> 10	COc1ccc(C(C(=O)N[C@@H](CO)C(=O)N[C@@H](Cc2ccccc2)C(=O)N[C@@H](CCCNC(=N)N)C(=O)N[C@@H](Cc2ccccc2)C(N)=O)N2CCNCC2)cc1 (stereo partly shown) [Compound 60, [Cmpi(4-MeOPhg)^22]26RFa(22–26)] (X5-SFRF-NH2)	–
> 10	COc1ccc(C(C(=O)N[C@@H](CO)C(=O)N[C@@H](Cc2ccccc2)C(=O)N[C@@H](CCCNC(=N)N)C(=O)N[C@@H](Cc2ccccc2)C(N)=O)N2CCNCC2)cc1OC (stereo partly shown) [Compound 61, [Cmpi(3,4-diMeOPhg)^22]26RFa(22–26)] (X4-SFRF-NH2)	–
> 10	COc1ccc(C(C(=O)N[C@@H](CO)C(=O)N[C@@H](Cc2ccccc2)C(=O)N[C@@H](CCCNC(=N)N)C(=O)N[C@@H](Cc2ccccc2)C(N)=O)N2CCNCC2)cc1OC (stereo partly shown) [Compound 62, [Cmpi(3,4-diMeOPhg)^22]26RFa(22–26)] (X4-SFRF-NH2)	–
4.99	N=C(N)NCCC[C@H](NC(=O)[C@H](Cc1ccccc1)NC(=O)[C@H](CO)NC(=O)C(c1cccnc1)N1CCNCC1)C(=O)N[C@@H](Cc1ccccc1)C(N)=O (stereo partly shown) [Compound 63, [Cmpi(3-Pyg)^22]26RFa(22–26)] (X1-SFRF-NH2)	–
> 10	N=C(N)NCCC[C@H](NC(=O)[C@H](Cc1ccccc1)NC(=O)[C@H](CO)NC(=O)C(c1cccnc1)N1CCNCC1)C(=O)N[C@@H](Cc1ccccc1)C(N)=O (stereo partly shown) [Compound 64, [Cmpi(3-Pyg)^22]26RFa(22–26)] (X1-SFRF-NH2)	–
